According to the supplement of paper PMC8617591:

Tests used:
[1] = test system: Mycobacterium tuberculosis Erdman (autoluminescent); test: FIC50 (Loewe) at 50% inhibition (log2); higher = more antagonistic
Method: (§1)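 DiaMOND equipotent two-drug combination dose responses against autoluminescent M. tuberculosis Erdman in 8 in vitro models. Read-out is OD600, or luminescence for the intracellular and dormancy models, normalised to untreated wells. Hill-fit Einf, AUC25 and GRinf are potency metrics; FIC50 and FIC90 are Loewe-additivity fractional inhibitory concentrations, given as log2 (negative = synergy). Replicates are averaged.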

[2] = test system: Mycobacterium tuberculosis Erdman (autoluminescent); test: AUC25, normalised area under dose response up to IC25 (fraction (0-1)); higher = more potent at low dose
Method: as §1

[3] = test system: Mycobacterium tuberculosis Erdman (autoluminescent); test: FIC90 (Loewe) at 90% inhibition (log2); higher = more antagonistic
Method: as §1

[4] = test system: Mycobacterium tuberculosis Erdman (autoluminescent); test: Einf, fitted maximum growth inhibition of combination (fraction); higher = stronger maximal inhibition
Method: as §1

[5] = test system: Mycobacterium tuberculosis Erdman (autoluminescent); test: GRinf, maximum normalised growth rate inhibition (unitless (-1 to 1)); higher = less effect (negative = killing)
Method: as §1

CC(=O)NC[C@H]1CN(c2ccc(N3CCOCC3)c(F)c2)C(=O)O1 [linezolid] + CO[C@H]1/C=C/O[C@@]2(C)Oc3c(C)c(O)c4c(O)c(c(/C=N/N5CCN(C6CCCC6)CC5)c(O)c4c3C2=O)NC(=O)/C(C)=C\C=C\[C@H](C)[C@H](O)[C@@H](C)[C@@H](O)[C@@H](C)[C@H](OC(C)=O)[C@@H]1C [rifapentine]
Conditions | AUC25, [2] | Einf, [4] | FIC50, [1] | FIC90, [3] | GRinf, [5]
in vitro model: acidic pH 5.7, time point: constant (~7 days, model-specific) | 0.0817 | 0.89 | 0.435 | – | -0.248
in vitro model: acidic pH 5.7, time point: terminal (~4-5 doublings, model-specific) | 0.0632 | 0.979 | 0.277 | 0.184 | -0.205
in vitro model: intracellular J774, time point: constant = terminal | – | 0.948 | – | -0.637 | -0.209

Conditions | AUC25, [2] | Einf, [4] | FIC50, [1] | FIC90, [3] | GRinf, [5]
in vitro model: butyrate, time point: constant (~7 days, model-specific) | 0.0729 | 0.876 | 0.227 | -0.305 | 0.113
in vitro model: butyrate, time point: terminal (~4-5 doublings, model-specific) | 0.0445 | 0.934 | 0.0572 | -0.553 | 0.0794
in vitro model: cholesterol 0.05 mM, time point: constant (~7 days, model-specific) | 0.156 | 0.718 | -0.52 | – | -0.0866
in vitro model: cholesterol 0.05 mM, time point: terminal (~4-5 doublings, model-specific) | 0.107 | 0.929 | -0.0542 | 0.274 | -0.162
in vitro model: cholesterol-high 0.2 mM, time point: constant (~7 days, model-specific) | 0.109 | 0.966 | -0.254 | -0.688 | -0.499
in vitro model: cholesterol-high 0.2 mM, time point: terminal (~4-5 doublings, model-specific) | 0.103 | 1 | 0.0666 | 0.0759 | -0.762
in vitro model: dormancy (butyrate + nitrate, low O2), time point: constant (~7 days, model-specific) | 0.0497 | 0.908 | 0.552 | 0.666 | 0.107
in vitro model: dormancy (butyrate + nitrate, low O2), time point: terminal (~4-5 doublings, model-specific) | 0.0324 | 0.979 | 0.585 | 0.484 | -0.13
in vitro model: standard 7H9 glycerol, time point: constant = terminal | 0.0541 | 0.927 | 0.266 | 0.154 | -0.0203
in vitro model: valerate, time point: constant (~7 days, model-specific) | 0.064 | 0.849 | 0.063 | – | 0.119
in vitro model: valerate, time point: terminal (~4-5 doublings, model-specific) | 0.0448 | 0.935 | 0.198 | 0.078 | 0.0691

CC(=O)NC[C@H]1CN(c2ccc(N3CCOCC3)c(F)c2)C(=O)O1 [linezolid] + CO[C@H]1/C=C/O[C@@]2(C)Oc3c(C)c(O)c4c(O)c(c(/C=N/N5CCN(C)CC5)c(O)c4c3C2=O)NC(=O)/C(C)=C\C=C\[C@H](C)[C@H](O)[C@@H](C)[C@@H](O)[C@@H](C)[C@H](OC(C)=O)[C@@H]1C [rifampicin]
Conditions | AUC25, [2] | Einf, [4] | FIC50, [1] | FIC90, [3] | GRinf, [5]
in vitro model: acidic pH 5.7, time point: constant (~7 days, model-specific) | 0.0878 | 0.902 | 0.204 | – | -0.289
in vitro model: acidic pH 5.7, time point: terminal (~4-5 doublings, model-specific) | 0.0656 | 0.983 | 0.31 | 0.0747 | -0.211
in vitro model: intracellular J774, time point: constant = terminal | – | 0.955 | – | -0.706 | -0.24

Conditions | AUC25, [2] | Einf, [4] | FIC50, [1] | FIC90, [3] | GRinf, [5]
in vitro model: butyrate, time point: constant (~7 days, model-specific) | 0.078 | 0.87 | 0.117 | – | 0.146
in vitro model: butyrate, time point: terminal (~4-5 doublings, model-specific) | 0.0601 | 0.938 | -0.0786 | -0.707 | 0.11
in vitro model: cholesterol 0.05 mM, time point: constant (~7 days, model-specific) | 0.154 | 0.725 | -0.622 | – | -0.00382
in vitro model: cholesterol 0.05 mM, time point: terminal (~4-5 doublings, model-specific) | 0.13 | 0.935 | -0.194 | -0.403 | -0.175
in vitro model: cholesterol-high 0.2 mM, time point: constant (~7 days, model-specific) | 0.101 | 0.997 | -0.0412 | -0.846 | -0.295
in vitro model: cholesterol-high 0.2 mM, time point: terminal (~4-5 doublings, model-specific) | 0.0937 | 1 | 0.555 | -0.0135 | -0.687
in vitro model: dormancy (butyrate + nitrate, low O2), time point: constant (~7 days, model-specific) | 0.0704 | 0.905 | 0.505 | 0.314 | 0.177
in vitro model: dormancy (butyrate + nitrate, low O2), time point: terminal (~4-5 doublings, model-specific) | 0.0353 | 0.969 | 0.176 | 0.0537 | -0.0276
in vitro model: standard 7H9 glycerol, time point: constant = terminal | 0.0527 | 0.885 | 0.284 | – | 0.156
in vitro model: valerate, time point: constant (~7 days, model-specific) | 0.0582 | 0.865 | 0.191 | – | 0.0036
in vitro model: valerate, time point: terminal (~4-5 doublings, model-specific) | 0.0309 | 0.945 | 0.171 | -0.411 | 0.00264

CC(=O)NC[C@H]1CN(c2ccc(N3CCOCC3)c(F)c2)C(=O)O1 [linezolid] + COc1c(N2C[C@@H]3CCCN[C@@H]3C2)c(F)cc2c(=O)c(C(=O)O)cn(C3CC3)c12 [moxifloxacin]
Conditions | AUC25, [2] | Einf, [4] | FIC50, [1] | FIC90, [3] | GRinf, [5]
in vitro model: acidic pH 5.7, time point: constant (~7 days, model-specific) | 0.144 | 0.799 | -0.0102 | – | -0.581
in vitro model: acidic pH 5.7, time point: terminal (~4-5 doublings, model-specific) | 0.102 | 0.963 | 0.872 | 0.52 | -0.271
in vitro model: intracellular J774, time point: constant = terminal | – | 0.909 | – | 0.463 | -0.14

Conditions | AUC25, [2] | Einf, [4] | FIC50, [1] | FIC90, [3] | GRinf, [5]
in vitro model: butyrate, time point: constant (~7 days, model-specific) | 0.0878 | 0.885 | 0.397 | 1.22 | 0.0908
in vitro model: butyrate, time point: terminal (~4-5 doublings, model-specific) | 0.0618 | 0.939 | 0.323 | 0.392 | 0.0886
in vitro model: cholesterol 0.05 mM, time point: constant (~7 days, model-specific) | 0.124 | 0.679 | -0.444 | – | -0.0664
in vitro model: cholesterol 0.05 mM, time point: terminal (~4-5 doublings, model-specific) | 0.137 | 0.938 | 0.0528 | -0.309 | -0.215
in vitro model: cholesterol-high 0.2 mM, time point: constant (~7 days, model-specific) | 0.123 | 0.95 | -0.129 | 0.814 | -0.546
in vitro model: cholesterol-high 0.2 mM, time point: terminal (~4-5 doublings, model-specific) | 0.125 | 1 | -0.211 | 0.433 | -0.844
in vitro model: dormancy (butyrate + nitrate, low O2), time point: constant (~7 days, model-specific) | 0.0537 | 0.914 | 0.869 | 0.521 | 0.139
in vitro model: dormancy (butyrate + nitrate, low O2), time point: terminal (~4-5 doublings, model-specific) | 0.0589 | 0.964 | 0.671 | 0.922 | 0.061
in vitro model: standard 7H9 glycerol, time point: constant = terminal | 0.0831 | 0.955 | 0.52 | 0.972 | -0.197
in vitro model: valerate, time point: constant (~7 days, model-specific) | 0.11 | 0.856 | 0.339 | – | 0.0191
in vitro model: valerate, time point: terminal (~4-5 doublings, model-specific) | 0.0688 | 0.932 | 0.36 | 0.679 | 0.0477
